# Reference: US6436939B2, “Method for using 2-aryloxyalkylaminobenzoxazoles and 2-aryloxyalkylaminobenzothiazoles as H3 antagonists” (Ortho-McNeil Pharmaceutical, Inc., priority 2000, dated 2002)
# Counter-ions that a name gives are not always drawn.
# Tested on: not given
# Assay: not given
# Details: not given
row,SMILES,melting point [°C]
1,"C(=C\c1nc2ccccc2s1)/c1ccc(OCCCN2CCCCC2)cc1 (as salt: HCl) [Example 3, (E)-2-[2-(4-Piperidinopropoxyphenyl)ethenyl]benzothiazole]",215 to 217
2,"C(=C\c1nc2ccccc2o1)/c1ccc(OCCCN2CCCCC2)cc1 (as salt: HCl) [Example 4, (E)-2-[2-[4-(3-Piperidinopropoxy)phenyl]ethenyl]benzoxazole]",127 to 128
3,"C(=C\c1nc2ccccc2o1)/c1ccc(OCCCCN2CCCCC2)cc1 (as salt: HCl) [Example 6, (E)-2-[2-(4-Piperidinobutoxyphenyl)ethenyl]benzoxazole]",230 to 232
4,"CCN(CC)CCCCOc1ccc(/C=C/c2nc3ccccc3o2)cc1 (as salt: HCl) [Example 7, (E)-2-[2-(4-Diethylaminobutoxyphenyl)ethenyl]benzoxazole]",219 to 220
5,"CCN(CC)CCCOc1ccc(/C=C/c2nc3ccccc3o2)cc1 (as salt: HCl) [Example 8, (E)-2-[2-(4-Diethylaminopropoxyphenyl)ethenyl]benzoxazole]",225 to 226
6,"C(=C\c1nc2ccccc2o1)/c1ccc(OCCCCN2CCCC2)cc1 (as salt: HCl) [Example 9, (E)-2-[2-(4-Pyrrolinobutoxyphenyl)ethenyl]benzoxazole]",229 to 232
7,"CCCN(CCC)CCCOc1ccc(-c2nc3ccccc3s2)cc1 (as salt: HCl) [Example 11, 2-(4-Dipropylaminopropoxyphenyl)benzothiazole]",142 to 143

# Target: T1, human histamine H3 receptor (Homo sapiens, UniProt Q9Y5N1)
# T1 construct: expressed in transfected cells; membranes prepared
# T1 sequence (Q9Y5N1 whole entry): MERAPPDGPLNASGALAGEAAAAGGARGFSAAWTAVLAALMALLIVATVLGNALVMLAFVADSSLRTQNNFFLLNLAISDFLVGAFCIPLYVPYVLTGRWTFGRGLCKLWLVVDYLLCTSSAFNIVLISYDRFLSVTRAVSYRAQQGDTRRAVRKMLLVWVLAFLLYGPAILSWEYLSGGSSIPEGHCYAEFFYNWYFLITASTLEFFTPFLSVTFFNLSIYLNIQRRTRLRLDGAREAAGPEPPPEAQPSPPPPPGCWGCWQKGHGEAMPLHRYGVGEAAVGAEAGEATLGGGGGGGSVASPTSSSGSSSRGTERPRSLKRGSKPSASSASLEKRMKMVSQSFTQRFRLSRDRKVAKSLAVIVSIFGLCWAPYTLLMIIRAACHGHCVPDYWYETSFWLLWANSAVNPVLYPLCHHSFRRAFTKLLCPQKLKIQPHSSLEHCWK
# Assay: [3H]-N-methylhistamine binding to membranes of H3 receptor-expressing SK-N-MC cells
# Details: 0.8 nM [3H]-N-methylhistamine, 45 minutes at 25° C., SK-N-MC cell membranes; KI from IC50 with KD 800 pM
# Protocol: In the present invention receptor binding was determined using the human histamine H3 receptor (See Lovenberg et al Mol. Pharmacol. 1999, 1107). Screening using the human receptor is particularly important for the identification of new therapies for the treatment of human disease. Conventional binding assays for example are determined using rat synaptosomes (Garbarg et al J. Pharmacol. Exp. Ther. 1992, 263, 304), rat cortical membranes (West et al Mol. Pharmacol. 1990, 610), and guinea pig brain (Korte et al Biochem. Biophys. Res. Commun. 1990, 978). Only limited studies have been performed previously using human tissue but these allude to significant differences in the pharmacology of rodent and primate receptors (West et al Eur. J. Pharmacol. 1999, 233).
# A 10 cm tissue culture dish with a confluent monolayer of SK-N-MC cells was split two days prior to transfection. Using sterile technique the media was removed and the cells were detached from the dish by the addition of trypsin. One fifth of the cells were then placed onto a new 10 cm dish. Cells were grown in a 37° C. incubator with 5% CO2 in Minimal Essential Media Eagle with 10% Fetal Bovine Serum. After two days cells were approximately 80% confluent. These were removed from the dish with trypsin and pelleted in a clinical centrifuge. The pellet was then re-suspended in 400 μL complete media and transferred to an electroporation cuvette with a 0.4 cm gap between the electrodes (Bio-Rad #165-2088). One microgram supercoiled H3 receptor CDNA was added to the cells and mixed. The voltage for the electroporation was set at 0.25 kV, the capacitance is set at 960 μF.
# After electroporation the cells were diluted into 10 mL complete media and plated onto four 10 cm dishes. Due to the variability in the efficiency of electroporation, four different concentrations of cells were plated. The ratios used were: 1:20, 1:10, and 1:5, with the remainder of the cells being added to the fourth dish. The cells were allowed to recover for 24 hours before adding the selection media (complete media with 600 μg/ml G418). After 10 days dishes were analyzed for surviving colonies of cells. Dishes with well-isolated colonies were used. Cells from individual colonies were isolated and tested. SK-N-MC cells were used because they give efficient coupling for inhibition of adenylate cyclase. The clones that gave the most robust inhibition of adenylate cyclase in response to histamine were used for further study.
# Cell pellets from histamine H3 receptor-expressing SK-N-MC cells were homogenized in 20 mM TrisHCl/0.5 mM EDTA. Supernatants from a 800 g spin were collected, reccentrifuged at 30,000 g for 30 minutes. Pellets were rehomogenized in 50 mM Tris/5 mM EDTA (pH 7.4). Membranes were incubated with 0.8 nM [^3H]-N-methylhistamine plus/minus test compounds for 45 minutes at 25° C. and harvested by rapid filtration over GF/C glass fiber filters (pretreated with 0.3% polyethylenimine) followed by four washes with ice cold buffer. Filters were dried, added to 4 mL scintillation cocktail and then counted on a liquid scintillation counter. Non-specific binding was defined with 10 μM histamine according to Chen and Prusoff, Biochem. Pharmacol. 1973, 22:3099. KI values were calculated based on a KD of 800 pM and a ligand concentration ([L]) of 800 pM according to the formula: […]
# KI values are provided in the examples above.
row,SMILES,Ki [nM]
1,"C(=C\c1nc2ccccc2s1)/c1ccc(OCCCN2CCCCC2)cc1 [Example 3, (E)-2-[2-(4-Piperidinopropoxyphenyl)ethenyl]benzothiazole]",15
2,"C(=C\c1nc2ccccc2o1)/c1ccc(OCCCN2CCCCC2)cc1 [Example 4, (E)-2-[2-[4-(3-Piperidinopropoxy)phenyl]ethenyl]benzoxazole]",13
3,"C(=C\c1nc2ccccc2o1)/c1ccc(OCCCCN2CCCCC2)cc1 [Example 6, (E)-2-[2-(4-Piperidinobutoxyphenyl)ethenyl]benzoxazole]",34
4,"CCN(CC)CCCCOc1ccc(/C=C/c2nc3ccccc3o2)cc1 [Example 7, (E)-2-[2-(4-Diethylaminobutoxyphenyl)ethenyl]benzoxazole]",48
5,"CCN(CC)CCCOc1ccc(/C=C/c2nc3ccccc3o2)cc1 [Example 8, (E)-2-[2-(4-Diethylaminopropoxyphenyl)ethenyl]benzoxazole]",31
6,"C(=C\c1nc2ccccc2o1)/c1ccc(OCCCCN2CCCC2)cc1 [Example 9, (E)-2-[2-(4-Pyrrolinobutoxyphenyl)ethenyl]benzoxazole]",17
7,"CCCN(CCC)CCCOc1ccc(-c2nc3ccccc3s2)cc1 [Example 11, 2-(4-Dipropylaminopropoxyphenyl)benzothiazole]",173
8,"CCCN(CCC)CCCCOc1c(C)cc(/C=C/c2nc3ccccc3s2)cc1C [Example 12, (E)-2-[2-(3,5-Dimethyl-4-dipropylaminobutoxyphenyl)ethenyl]benzothiazole]",1000
